Test results: the NIST ThermoML archive (doi:10.1021/je2013704)

Assay: mn = molality of the nth substance listed, in mol/kg
Details: Liquid, Vibrating tube method

[Cl-].[Na+] [sodium chloride] + O
mass density [kg/m3]
Details | 298.12 K | 323.07 K | 348.04 K | 372.99 K | 397.97 K | 422.94 K | 447.94 K | 472.96 K
900 kPa, m1 = 1.06 | 1038.78 | 1028.45 | 1014.93 | 998.89 | 980.42 | 959.71 | 936.49 | –
900 kPa, m1 = 3.16 | 1111.08 | 1098.8 | 1084.57 | 1068.6 | 1051.16 | 1031.93 | 1010.87 | –
900 kPa, m1 = 6 | 1194.53 | 1180.58 | 1165.53 | 1149.58 | 1132.48 | 1114.2 | 1094.62 | –
9900 kPa, m1 = 1.06 | 1042.49 | 1032.1 | 1018.61 | 1002.77 | 984.6 | 964.31 | 941.64 | 916.86
9900 kPa, m1 = 3.16 | 1114.33 | 1102.1 | 1087.94 | 1072.14 | 1054.84 | 1036.08 | 1015.28 | 993.19
9900 kPa, m1 = 6 | 1197.36 | 1183.46 | 1168.53 | 1152.7 | 1135.74 | 1117.84 | 1098.38 | 1078.2
19900 kPa, m1 = 1.06 | 1046.61 | 1036.09 | 1022.67 | 1007 | 989.13 | 969.29 | 947.14 | 923.12
19900 kPa, m1 = 3.16 | 1117.89 | 1105.63 | 1091.54 | 1075.95 | 1058.92 | – | – | 998.47
19900 kPa, m1 = 6 | 1200.44 | 1186.57 | 1171.76 | 1156.09 | 1139.35 | 1121.56 | 1102.62 | 1082.67
29900 kPa, m1 = 1.06 | 1050.58 | – | 1026.61 | 1011.16 | 993.51 | 974.04 | 952.41 | 929
29900 kPa, m1 = 3.16 | 1121.4 | 1109.07 | 1095.09 | 1079.61 | 1062.79 | 1044.51 | 1024.61 | 1003.47
29900 kPa, m1 = 6 | 1203.47 | 1189.69 | 1174.98 | 1159.48 | 1142.8 | 1125.33 | 1106.53 | 1087.01
39900 kPa, m1 = 1.06 | 1054.45 | 1043.77 | 1030.49 | 1015.15 | 997.76 | 978.6 | 957.55 | 934.76
39900 kPa, m1 = 3.16 | 1124.91 | 1112.54 | 1098.65 | 1083.24 | 1066.63 | 1048.68 | 1029.15 | 1008.45
39900 kPa, m1 = 6 | 1206.51 | 1192.73 | 1178.07 | 1162.74 | 1146.27 | 1128.98 | 1110.46 | 1091.28
49900 kPa, m1 = 1.06 | 1058.27 | 1047.49 | 1034.25 | 1019.09 | 1002.02 | 983.2 | 962.42 | 940.22
49900 kPa, m1 = 3.16 | 1128.21 | 1115.9 | 1101.95 | 1086.77 | 1070.44 | 1052.68 | – | 1013.17
49900 kPa, m1 = 6 | 1209.49 | 1195.77 | 1181.15 | 1165.95 | 1149.66 | 1132.56 | 1114.27 | 1095.39
59900 kPa, m1 = 1.06 | 1061.93 | 1051.1 | 1037.94 | 1022.88 | 1006.01 | 987.46 | 967.35 | 945.52
59900 kPa, m1 = 3.16 | 1131.46 | 1119.2 | 1105.34 | 1090.25 | 1074.07 | 1056.58 | 1037.71 | 1017.78
59900 kPa, m1 = 6 | 1212.31 | 1198.7 | 1184.21 | 1169 | 1152.86 | 1136.03 | 1118.04 | 1099.39
68400 kPa, m1 = 1.06 | 1065.11 | 1054.12 | 1041.08 | 1026.09 | 1009.32 | 991.15 | 971.22 | 949.91
68400 kPa, m1 = 3.16 | 1134.29 | 1121.87 | 1108.22 | 1093.16 | 1077.08 | 1059.82 | 1041.14 | 1021.53
68400 kPa, m1 = 6 | 1214.78 | 1201.09 | 1186.78 | 1171.6 | 1155.61 | 1138.92 | 1121.1 | 1102.68
